This is an account of results in ChEMBL document CHEMBL1130335, “Comparative molecular field analysis of a series of paclitaxel analogues” (J Med Chem, 1997).

This assay is described as follows: Measured activity expressed as ID50 (analogue)/ID50 (paclitaxel), where ID50 is the concentration of compound leading to 50% inhibition of the rate microtubule disassembly. It counts as functional.

With `CC(=O)O[C@@H]1C2=C(C)[C@@H](OC(=O)[C@H](O)[C@@H](NC(=O)OC(C)C)c3ccccc3)C[C@@](O)([C@@H](OC(=O)c3ccccc3)[C@H]3[C@@](C)([C@@H](O)CC4OC[C@]43OC(C)=O)[C@H]1O)C2(C)C` (some centres not stated), the Activity came to 0.75. Under `CC(=O)O[C@H]1C(=O)[C@]2(C)[C@@H](O)CC3OC[C@@]3(OC(C)=O)[C@H]2[C@H](OC(=O)c2ccccc2)[C@]2(O)C[C@H](OC(=O)[C@@H](O)[C@@H](NC(=O)c3ccccc3)c3ccccc3)C(C)=C1C2(C)C` (some centres not stated) stands 4.5; under `CC(=O)O[C@@]12COC1C[C@H](O)[C@@]1(C)C(=O)[C@H](O)C3=C(C)[C@@H](OC(=O)[C@H](O)[C@@H](C=C(C)C)NC(=O)OC(C)(C)C)C[C@@](O)([C@@H](OC(=O)c4ccccc4)[C@@H]12)C3(C)C` (some centres not stated), 0.64. As for `CC(=O)O[C@H]1C(=O)[C@]2(C)[C@@H](O)CC3OC[C@@]3(OC(C)=O)[C@H]2[C@H](OC(=O)c2ccccc2)[C@]2(O)C[C@H](OC(=O)[C@H](O)[C@H](NC(=O)c3ccco3)c3ccccc3)C(C)=C1C2(C)C` (some centres not stated), the figure is 0.8. The compound `CCOC(=O)N[C@@H](c1ccccc1)[C@@H](O)C(=O)O[C@H]1C[C@@]2(O)[C@@H](OC(=O)c3ccccc3)[C@H]3[C@@](C)([C@@H](O)CC4OC[C@]43OC(C)=O)[C@@H](O)[C@H](OC(C)=O)C(=C1C)C2(C)C` (some centres not stated) came in with an Activity of 0.82. As for `CC(=O)O[C@@]12COC1C[C@H](O)[C@@]1(C)C(=O)[C@H](O)C3=C(C)[C@@H](OC(=O)[C@@H](O)Cc4ccccc4)C[C@@](O)([C@@H](OC(=O)c4ccccc4)[C@@H]12)C3(C)C` (some centres not stated), the figure is 3.5. Consider `CCCCOC(=O)N[C@H](c1ccccc1)[C@@H](O)C(=O)O[C@H]1C[C@@]2(O)[C@@H](OC(=O)c3ccccc3)[C@H]3[C@](C)(C(=O)[C@H](OC(C)=O)C(=C1C)C2(C)C)[C@@H](O)CC1OC[C@]13OC(C)=O` (some centres not stated), for which the Activity was 0.8. Under `CC(=O)O[C@@]12COC1C[C@H](O)[C@@]1(C)C(=O)[C@H](O)C3=C(C)[C@@H](OC(=O)[C@H](O)[C@@H](CC(C)C)NC(=O)OC(C)(C)C)C[C@@](O)([C@@H](OC(=O)c4ccccc4)[C@@H]12)C3(C)C` (some centres not stated) stands 0.78; under `CC(=O)O[C@H]1C(=O)[C@]2(C)[C@@H](O)CC3OC[C@@]3(OC(C)=O)[C@H]2[C@H](OC(=O)c2ccccc2)[C@]2(O)C[C@H](OC(=O)[C@@H](NC(=O)OC(C)(C)C)[C@@H](O)c3ccccc3)C(C)=C1C2(C)C` (some centres not stated), 108; under `C/C=C/C(=O)O[C@H]1C[C@@]2(O)[C@@H](OC(=O)c3ccccc3)[C@H]3[C@](C)(C(=O)[C@H](OC(C)=O)C(=C1C)C2(C)C)[C@@H](O)CC1OC[C@]13OC(C)=O` (some centres not stated), 100. Under `CC(=O)O[C@@H]1C2=C(C)[C@@H](OC(=O)[C@H](O)[C@H](COc3ccccc3)NC(=O)c3ccccc3)C[C@@](O)([C@@H](OC(=O)c3ccccc3)[C@H]3[C@@](C)([C@@H](O)CC4OC[C@]43OC(C)=O)[C@H]1O)C2(C)C` (some centres not stated) stands 5.81; under `CC(=O)O[C@H]1C(=O)[C@]2(C)[C@@H](O)CC3OC[C@@]3(OC(C)=O)[C@H]2[C@H](OC(=O)C2CCCCC2)[C@]2(O)C[C@H](OC(=O)[C@H](O)[C@@H](NC(=O)OC(C)(C)C)c3ccccc3)C(C)=C1C2(C)C` (some centres not stated), 0.67; under `CC(=O)O[C@H]1C(=O)[C@]2(C)[C@@H](O)CC3OC[C@@]3(OC(C)=O)[C@H]2[C@H](OC(=O)c2ccccc2)[C@]2(O)C[C@H](OC(=O)[C@H](O)[C@H](NC(=O)c3ccc(Cl)cc3)c3ccccc3)C(C)=C1C2(C)C` (some centres not stated), 2.4. Under `CC(=O)O[C@@]12COC1C[C@H](O)[C@@]1(C)C(=O)[C@H](O)C3=C(C)[C@@H](OC(=O)[C@H](NC(=O)c4ccccc4)[C@H](O)c4ccccc4)C[C@@](O)([C@@H](OC(=O)c4ccccc4)[C@@H]12)C3(C)C` (some centres not stated) stands 10; under `CC(=O)O[C@@]12COC1C[C@H](O)[C@@]1(C)C(=O)[C@H](O)C3=C(C)[C@@H](OC(=O)[C@H](O)[C@@H](NC(=O)OC(C)(C)C)c4ccccc4)[C@@H]4OC(C)(C)O[C@]4([C@@H](OC(=O)c4ccccc4)[C@@H]12)C3(C)C` (some centres not stated), 3. For the compound `CC(=O)O[C@H]1C(=O)[C@]2(C)[C@@H](O)CC3OC[C@@]3(OC(C)=O)[C@H]2[C@H](OC(=O)c2ccccc2)[C@]2(O)C[C@H](OC(=O)[C@H](O)[C@H](NC(=O)OC(C)(C)C)c3ccccc3)C(C)=C1C2(C)C` (some centres not stated), the Activity was determined as 0.5. As for `CC(=O)O[C@@H]1C2=C(C)[C@@H](OC(=O)[C@H](O)[C@@H](NC(=O)OC(C)(C)C)[C@H]3COC(C)(C)O3)C[C@@](O)([C@@H](OC(=O)c3ccccc3)[C@H]3[C@@](C)([C@@H](O)CC4OC[C@]43OC(C)=O)[C@H]1O)C2(C)C` (some centres not stated), the figure is 7.91; as for `CC(=O)O[C@@]12COC1C[C@H](O)[C@@]1(C)C(=O)[C@H](O)C3=C(C)[C@@H](OC(=O)[C@@H](NC(=O)c4ccccc4)[C@@H](O)c4ccccc4)C[C@@](O)([C@@H](OC(=O)c4ccccc4)[C@@H]12)C3(C)C` (some centres not stated), 170.

As for `CC(=O)O[C@H]1C(=O)[C@]2(C)[C@@H](O)CC3OC[C@@]3(OC(C)=O)[C@H]2[C@H](OC(=O)c2ccccc2)[C@]2(O)C[C@H](OC(=O)[C@H](O)[C@H](NC(=O)c3ccccc3)c3cccc4ccccc34)C(C)=C1C2(C)C` (some centres not stated), the Activity amounted to 7.1.

On to `CC(=O)N[C@@H](c1ccccc1)[C@@H](O)C(=O)O[C@H]1C[C@@]2(O)[C@@H](OC(=O)c3ccccc3)[C@H]3[C@@](C)([C@@H](O)CC4OC[C@]43OC(C)=O)[C@@H](O)[C@H](OC(C)=O)C(=C1C)C2(C)C` (some centres not stated), for which the Activity worked out at 3.17. Under `CC(=O)O[C@@H]1C2=C(C)[C@@H](OC(=O)[C@H](O)[C@@H](NC(=O)OC(C)(C)C)C3CCCCC3)C[C@@](O)([C@@H](OC(=O)c3ccccc3)[C@H]3[C@@](C)([C@@H](O)CC4OC[C@]43OC(C)=O)[C@H]1O)C2(C)C` (some centres not stated) stands 0.57. Under `CC(=O)O[C@H]1C(=O)[C@]2(C)[C@@H](O)CC3OC[C@@]3(OC(C)=O)[C@H]2[C@H](OC(=O)c2ccccc2)[C@]2(O)C[C@H](OC(=O)[C@H](O)[C@H](NC(=O)c3ccccc3)c3ccc(C)cc3)C(C)=C1C2(C)C` (some centres not stated) stands 0.8. Under `CC(=O)O[C@@]12COC1C[C@H](O)[C@@]1(C)C(=O)[C@H](O)C3=C(C)[C@@H](OC(=O)/C=C/c4ccccc4)C[C@@](O)([C@@H](OC(=O)c4ccccc4)[C@@H]12)C3(C)C` (some centres not stated) stands 23. In turn, `CC(=O)O[C@@]12COC1C[C@H](O)[C@@]1(C)C(=O)[C@H](O)C3=C(C)[C@@H](OC(=O)[C@H](O)[C@H](NC(=O)C4CCCC4)C(C)(C)C)C[C@@](O)([C@@H](OC(=O)c4ccccc4)[C@@H]12)C3(C)C` (some centres not stated) came in with an Activity of 1.5. In the case of `CC(=O)O[C@H]1C(=O)[C@]2(C)[C@@H](O)CC3OC[C@@]3(OC(C)=O)[C@H]2[C@H](OC(=O)c2ccccc2)[C@]2(O)C[C@H](OC(=O)[C@H](O)[C@H](NC(=O)c3ccccc3)c3ccc(O)cc3)C(C)=C1C2(C)C` (some centres not stated), the Activity is 0.8. `COC(=O)[C@@H](C(=O)O[C@H]1C[C@@]2(O)[C@@H](OC(=O)c3ccccc3)[C@H]3[C@](C)(C(=O)[C@H](OC(C)=O)C(=C1C)C2(C)C)[C@@H](O)CC1OC[C@]13OC(C)=O)[C@H](NC(=O)c1ccccc1)c1ccccc1` (some centres not stated) came in with an Activity of 30. As for `COC[C@H](NC(=O)c1ccccc1)[C@@H](O)C(=O)O[C@H]1C[C@@]2(O)[C@@H](OC(=O)c3ccccc3)[C@H]3[C@@](C)([C@@H](O)CC4OC[C@]43OC(C)=O)[C@@H](O)[C@H](OC(C)=O)C(=C1C)C2(C)C` (some centres not stated), the figure is 3.14; as for `CC(=O)O[C@@H]1C2=C(C)[C@@H](OC(=O)[C@H](O)[C@@H](NC(=O)OC(C)(C)C)c3ccccc3)C[C@@](O)([C@@H](OC(=O)c3ccccc3)[C@H]3[C@@](C)([C@@H](O)CC4OC[C@]43OC(C)=O)[C@H]1O)C2(C)C` (some centres not stated), 0.87; as for `CO[C@H]1CC2OC[C@@]2(OC(C)=O)[C@H]2[C@H](OC(=O)c3ccccc3)[C@]3(O)C[C@H](OC(=O)[C@H](O)[C@@H](NC(=O)OC(C)(C)C)c4ccccc4)C(C)=C([C@@H](OC(C)=O)[C@H](O)[C@]12C)C3(C)C` (some centres not stated), 1.74. Under `C/C=C(/C)C(=O)N[C@H](c1ccccc1)[C@@H](O)C(=O)O[C@H]1C[C@@]2(O)[C@@H](OC(=O)c3ccccc3)[C@H]3[C@](C)(C(=O)[C@H](OC(C)=O)C(=C1C)C2(C)C)[C@@H](O)CC1OC[C@]13OC(C)=O` (some centres not stated) stands 1.5. With `CC(=O)O[C@H]1C(=O)[C@]2(C)[C@@H](O)CC3OC[C@@]3(OC(C)=O)[C@H]2[C@H](OC(=O)C2CCCCC2)[C@]2(O)C[C@H](OC(=O)[C@H](O)[C@@H](NC(=O)c3ccccc3)c3ccccc3)C(C)=C1C2(C)C` (some centres not stated), the Activity was found to be 1.7.

`CC(=O)O[C@@]12COC1C[C@H](O)[C@@]1(C)C(=O)[C@H](O)C3=C(C)[C@@H](OC(=O)[C@H](O)[C@H](NC(=O)c4cccs4)C(C)(C)C)C[C@@](O)([C@@H](OC(=O)c4ccccc4)[C@@H]12)C3(C)C` (some centres not stated): the Activity was 0.42. As for `CC(=O)O[C@@H]1C2=C(C)[C@@H](OC(=O)[C@H](O)[C@@H](NC(=O)NC(C)(C)C)c3ccccc3)C[C@@](O)([C@@H](OC(=O)c3ccccc3)[C@H]3[C@@](C)([C@@H](O)CC4OC[C@]43OC(C)=O)[C@H]1O)C2(C)C` (some centres not stated), the figure is 1.06; as for `CC(=O)O[C@H]1C(=O)[C@]2(C)[C@@H](O)CC3OC[C@@]3(OC(C)=O)[C@H]2[C@H](OC(=O)c2ccccc2)[C@]2(O)C[C@H](OC(=O)[C@H](O)[C@H](NC(=O)C(C)(C)C)c3ccccc3)C(C)=C1C2(C)C` (some centres not stated), 2.6. In turn, `CC(=O)O[C@@H]1C2=C(C)[C@@H](OC(=O)[C@H](O)[C@@H](NC(=O)OC(C)(C)C)C(O)CO)C[C@@](O)([C@@H](OC(=O)c3ccccc3)[C@H]3[C@@](C)([C@@H](O)CC4OC[C@]43OC(C)=O)[C@H]1O)C2(C)C` (some centres not stated) had an Activity of 2.71. Under `CC(=O)O[C@H]1C(=O)[C@]2(C)[C@@H](O)CC3OC[C@@]3(OC(C)=O)[C@H]2[C@H](OC(=O)C2CCCCC2)[C@]2(O)C[C@H](OC(=O)[C@H](O)[C@@H](NC(=O)C3CCCCC3)C3CCCCC3)C(C)=C1C2(C)C` (some centres not stated) stands 0.47; under `CC(=O)O[C@@]12COC1C[C@H](O)[C@@]1(C)C(=O)[C@H](O)C3=C(C)[C@@H](OC(=O)CCc4ccccc4)C[C@@](O)([C@@H](OC(=O)c4ccccc4)[C@@H]12)C3(C)C` (some centres not stated), 17.
